Measurements taken from PubChem BioAssay AID248 (DTP/NCI, 2004).
Values joined by “and” are separate entries in the source; they are usually repeats but may differ in a detail not shown here. Equal entries are not always repeated. Inconclusive results and toxic doses are left out.

System: L1210 leukemia ip in BDF1 mice, survival T/C
Assay: NCI In Vivo Anticancer Drug Screen. Data for tumor model L1210 Leukemia (intraperitoneal) in B6D2F1 (BDF1) mice
Details: endpoint: mean survival time, higher = longer survival
In short: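 Survival endpoint. Drug-treated group vs vehicle group, expressed as T divided by C. Tumor passaged by transplantation.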

[1] = dose: 100.0 mg/kg/injection, schedule: Q04DX002 (ip), vehicle: saline with Tween-80
[2] = dose: 200.0 mg/kg/injection, schedule: Q04DX002 (ip), vehicle: saline with Tween-80
[3] = dose: 400.0 mg/kg/injection, schedule: Q04DX002 (ip), vehicle: saline with Tween-80
[4] = dose: 100.0 mg/kg/injection, schedule: Q01DX009 (ip), vehicle: Klucel (hydroxypropylcellulose) (HPC)
[5] = dose: 200.0 mg/kg/injection, schedule: Q01DX009 (ip), vehicle: Klucel (hydroxypropylcellulose) (HPC)
[6] = dose: 400.0 mg/kg/injection, schedule: Q01DX009 (ip), vehicle: Klucel (hydroxypropylcellulose) (HPC)
[7] = dose: 100.0 mg/kg/injection, schedule: Q04DX003 (ip), vehicle: Klucel (hydroxypropylcellulose) (HPC)
[8] = dose: 200.0 mg/kg/injection, schedule: Q04DX003 (ip), vehicle: Klucel (hydroxypropylcellulose) (HPC)
[9] = dose: 400.0 mg/kg/injection, schedule: Q04DX003 (ip), vehicle: Klucel (hydroxypropylcellulose) (HPC)
[10] = dose: 400.0 mg/kg/injection, schedule: Q01DX001 (ip), vehicle: carboxymethylcellulose (CMC)
[11] = dose: 100.0 mg/kg/injection, schedule: Q01DX001 (ip), vehicle: saline
[12] = dose: 200.0 mg/kg/injection, schedule: Q01DX001 (ip), vehicle: saline
[13] = dose: 400.0 mg/kg/injection, schedule: Q01DX001 (ip), vehicle: saline
[14] = dose: 100.0 mg/kg/injection, schedule: Q04DX002 (ip), vehicle: Klucel (hydroxypropylcellulose) (HPC)
[15] = dose: 50.0 mg/kg/injection, schedule: Q04DX002 (ip), vehicle: Klucel (hydroxypropylcellulose) (HPC)

In the case of `NC(N)=N/N=C\c1ccc(C2CCNCC2)cc1`, the T/C (dose: 15.0 mg/kg/injection, schedule: Q01DX Z (ip), vehicle: methylcellulose (MC)) was 107 % of control, the T/C (dose: 15.0 mg/kg/injection, schedule: Q01DX Z (oral), vehicle: methylcellulose (MC)) was 110 % of control and the T/C (dose: 30.0 mg/kg/injection, schedule: Q01DX Z (ip), vehicle: methylcellulose (MC)) was 108 % of control. For the same molecule, the T/C (dose: 30.0 mg/kg/injection, schedule: Q01DX Z (oral), vehicle: methylcellulose (MC)) was 100 % of control and the T/C (dose: 60.0 mg/kg/injection, schedule: Q01DX Z (oral), vehicle: methylcellulose (MC)) was 104 % of control.

`c1ccc(C(c2ccccc2)c2ccncc2)cc1` was tested, and the T/C [1] was 87 % of control, the T/C [2] was 90 % of control and the T/C [3] was 87 % of control.

With `CCOC(=O)C(C(=O)OCC)C1c2ccccc2C([N+](=O)[O-])c2ccccc21` (configuration not stated) the T/C (dose: 100.0 mg/kg/injection, schedule: Q01DX001 (ip), vehicle: Klucel (hydroxypropylcellulose) (HPC)) was 91 % of control, the T/C [4] was 96 % of control and the T/C (dose: 200.0 mg/kg/injection, schedule: Q01DX001 (ip), vehicle: Klucel (hydroxypropylcellulose) (HPC)) was 96 % of control. For the same molecule, the T/C [5] was 89 % of control, the T/C (dose: 400.0 mg/kg/injection, schedule: Q01DX001 (ip), vehicle: Klucel (hydroxypropylcellulose) (HPC)) was 91 % of control and the T/C [6] was 103 % of control.

`O=C(CC(c1ccccc1)N1CCN(c2ccccc2)CC1)c1ccccc1` (configuration not stated) was tested, and the T/C [7] was 102 % of control, the T/C [8] was 97 % of control and the T/C [9] was 94 % of control.

With `NC(N)=NC(N)=NC1CCCCC1` the T/C (dose: 50.0 mg/kg/injection, schedule: Q01DX009 (ip), vehicle: saline) was 89 % of control, the T/C (dose: 100.0 mg/kg/injection, schedule: Q01DX009 (ip), vehicle: saline) was 102 % of control and the T/C (dose: 200.0 mg/kg/injection, schedule: Q01DX009 (ip), vehicle: saline) was 108 % of control.

With `C=CCNC(=S)NCC=C` the T/C [4] was 102 % of control, the T/C [7] was 102 % of control and the T/C [5] was 100 % of control. The T/C [8] was 104 % of control, the T/C [6] was 100 % of control and the T/C [9] was 102 % of control.

With `CC(C)(C)OC(=O)NCCCCC(NC(=O)OCc1ccccc1)C(=O)Oc1ccc([N+](=O)[O-])cc1` (configuration not stated) the T/C (dose: 100.0 mg/kg/injection, schedule: Q01DX009 (ip), vehicle: saline with Tween-80) was 88 % of control and the T/C (dose: 200.0 mg/kg/injection, schedule: Q01DX009 (ip), vehicle: saline with Tween-80) was 93 % of control.

For `CC(C)C[As](=O)(O)CC(C)C`, the T/C (dose: 25.0 mg/kg/injection, schedule: Q04DX003 (ip), vehicle: saline) was 104 % of control and the T/C (dose: 50.0 mg/kg/injection, schedule: Q04DX003 (ip), vehicle: saline) was 109 % of control.

In the case of `O=S(=O)(c1ccccc1)n1c(C(O)c2cccnc2)cc2ccccc21` (configuration not stated), the T/C [1] was 93 % of control, the T/C [2] was 100 % of control and the T/C [3] was 90 % of control.

`O=C(O)c1ccccc1-c1ccc([N+](=O)[O-])cc1Cl` was tested, and the T/C (dose: 177.0 mg/kg/injection, schedule: Q01DX001 (ip), vehicle: carboxymethylcellulose (CMC)) was 106 % of control, the T/C (dose: 266.0 mg/kg/injection, schedule: Q01DX001 (ip), vehicle: carboxymethylcellulose (CMC)) was 98 % of control and the T/C [10] was 104 % of control.

For `ClC1=C(Cl)C(Cl)(Cl)C2C1C1C(Cl)=C(Cl)C(Cl)(Cl)C1C1C2C(Cl)=C(Cl)C1(Cl)Cl` (configuration not stated), the T/C (dose: 100.0 mg/kg/injection, schedule: Q01DX001 (ip), vehicle: gum acacia) was 95 % of control, the T/C (dose: 100.0 mg/kg/injection, schedule: Q01DX009 (ip), vehicle: gum acacia) was 92 % of control and the T/C (dose: 200.0 mg/kg/injection, schedule: Q01DX001 (ip), vehicle: gum acacia) was 88 % of control. For the same molecule, the T/C (dose: 200.0 mg/kg/injection, schedule: Q01DX009 (ip), vehicle: gum acacia) was 94 % of control, the T/C (dose: 400.0 mg/kg/injection, schedule: Q01DX001 (ip), vehicle: gum acacia) was 92 % of control and the T/C (dose: 400.0 mg/kg/injection, schedule: Q01DX009 (ip), vehicle: gum acacia) was 93 % of control.

`Nc1ccc(S(=O)(=O)F)cc1N` was tested, and the T/C (dose: 100.0 mg/kg/injection, schedule: Q01DX001 (ip), vehicle: acetone) was 101 % of control, the T/C (dose: 100.0 mg/kg/injection, schedule: Q01DX009 (ip), vehicle: acetone) was 96 % of control and the T/C (dose: 200.0 mg/kg/injection, schedule: Q01DX001 (ip), vehicle: acetone) was 101 % of control. The T/C (dose: 200.0 mg/kg/injection, schedule: Q01DX009 (ip), vehicle: acetone) was 93 % of control and the T/C (dose: 400.0 mg/kg/injection, schedule: Q01DX001 (ip), vehicle: acetone) was 103 % of control.

For `O=c1cc(-c2c(O)cc(O)cc2O)oc2cc(O)cc(O)c12`, the T/C (dose: 100.0 mg/kg/injection, schedule: Q01DX001 (ip), vehicle: carboxymethylcellulose (CMC)) was 94 % of control, the T/C (dose: 200.0 mg/kg/injection, schedule: Q01DX001 (ip), vehicle: carboxymethylcellulose (CMC)) was 94 % of control and the T/C [10] was 92 % of control.

With `CCCCCCC(C)(C)NC(N)=O` the T/C [11] was 98 % of control, the T/C [12] was 101 % of control and the T/C [13] was 93 % of control.

In the case of `CC(C)CCCC(C)C1CCC2C3CC=C4CC(OCCO)CCC4(C)C3CCC12C` (configuration not stated), the T/C (dose: 100.0 mg/kg/injection, schedule: Q01DX009 (ip), vehicle: other) was 87 % of control and the T/C (dose: 200.0 mg/kg/injection, schedule: Q01DX009 (ip), vehicle: other) was 105 % of control.

For `CCOc1ccc(N=Cc2cc(Br)ccc2O)cc1`, the T/C [1] was 96 % of control, the T/C [2] was 100 % of control and the T/C [3] was 100 % of control.

In the case of `Cc1cccc(NC(=O)c2ccc(Cl)cc2Cl)n1` (tested in a mixture with another compound), the T/C [14] was 103 % of control, the T/C (dose: 200.0 mg/kg/injection, schedule: Q04DX002 (ip), vehicle: Klucel (hydroxypropylcellulose) (HPC)) was 103 % of control and the T/C (dose: 400.0 mg/kg/injection, schedule: Q04DX002 (ip), vehicle: Klucel (hydroxypropylcellulose) (HPC)) was 92 % of control.

For `CC1(C)CC(=O)C(C)(C)C(=O)C1` (tested in a mixture with another compound), the T/C (dose: 25.0 mg/kg/injection, schedule: Q04DX002 (ip), vehicle: Klucel (hydroxypropylcellulose) (HPC)) was 102 % of control, the T/C [15] was 96 % of control and the T/C [14] was 108 % of control.

With `O=C(O)C1C(c2c3ccc(=O)c(O)c-3oc3c(O)c(O)ccc23)C2(Cl)C(Cl)=C(Cl)C1(Cl)C2(Cl)Cl` (configuration not stated) the T/C (dose: 50.0 mg/kg/injection, schedule: Q01DX009 (ip), vehicle: alcohol) was 92 % of control, the T/C (dose: 100.0 mg/kg/injection, schedule: Q01DX009 (ip), vehicle: alcohol) was 92 % of control and the T/C (dose: 100.0 mg/kg/injection, schedule: Q04DX003 (ip), vehicle: alcohol) was 100 % of control. For the same molecule, the T/C (dose: 200.0 mg/kg/injection, schedule: Q04DX003 (ip), vehicle: alcohol) was 95 % of control.

For `O=C(Nc1cc([N+](=O)[O-])ccc1O)Nc1cccc(Cl)c1Cl`, the T/C [4] was 88 % of control, the T/C [5] was 100 % of control and the T/C [6] was 92 % of control.

In the case of `Nc1nc(SCc2ccccc2)c2ncn(C3CC(O)C(CO)O3)c2n1` (configuration not stated), the T/C (dose: 7.0 mg/kg/injection, schedule: Q01DX015 (ip), vehicle: saline) was 118 % of control, the T/C (dose: 12.0 mg/kg/injection, schedule: Q01DX015 (ip), vehicle: saline) was 168 % of control and the T/C (dose: 20.0 mg/kg/injection, schedule: Q01DX015 (ip), vehicle: saline) was 172 % of control. For the same molecule, the T/C (dose: 34.0 mg/kg/injection, schedule: Q01DX015 (ip), vehicle: saline) was 153 % of control, the T/C (dose: 100.0 mg/kg/injection, schedule: Q01DX005 (ip), vehicle: saline) was 97 % of control and the T/C (dose: 200.0 mg/kg/injection, schedule: Q01DX005 (ip), vehicle: saline) was 113 % of control. The T/C [13] was 157 % of control.

In the case of `FC(F)(F)c1cccc(N2CCNCC2)c1`, the T/C (dose: 75.0 mg/kg/injection, schedule: Q01DX001 (ip), vehicle: acid diluted with saline) was 90 % of control.

With `CC=NC(C)(C)C` the T/C (dose: 12.5 mg/kg/injection, schedule: Q01DX009 (ip), vehicle: saline with Tween-80) was 91 % of control, the T/C (dose: 25.0 mg/kg/injection, schedule: Q01DX009 (ip), vehicle: saline with Tween-80) was 94 % of control and the T/C (dose: 50.0 mg/kg/injection, schedule: Q01DX009 (ip), vehicle: saline with Tween-80) was 95 % of control and 91 % of control.

In the case of `CC(C)CC(N)C(=O)NCCCCCCNCCCCCCNC(=O)C(N)CC(C)C` (configuration not stated), the T/C (dose: 50.0 mg/kg/injection, schedule: Q01DX001 (ip), vehicle: saline) was 103 % of control, the T/C [11] was 105 % of control and the T/C [12] was 102 % of control.

`COc1ccc(OC)c(-c2csc(=O)s2)c1` was tested, and the T/C [15] was 97 % of control and the T/C [14] was 111 % of control.
